Where a name gives a salt, the structure may show the parent alone.
Experiments:
[1] = target: T1, 5HT1A (Homo sapiens, UniProt P08908); experiment: Serotonin (5HT) receptor binding action (RBA; in vitro), 5HT1A; details: method of JP98/01481 or JP-A 10-281752
T1 sequence (P08908 1-422): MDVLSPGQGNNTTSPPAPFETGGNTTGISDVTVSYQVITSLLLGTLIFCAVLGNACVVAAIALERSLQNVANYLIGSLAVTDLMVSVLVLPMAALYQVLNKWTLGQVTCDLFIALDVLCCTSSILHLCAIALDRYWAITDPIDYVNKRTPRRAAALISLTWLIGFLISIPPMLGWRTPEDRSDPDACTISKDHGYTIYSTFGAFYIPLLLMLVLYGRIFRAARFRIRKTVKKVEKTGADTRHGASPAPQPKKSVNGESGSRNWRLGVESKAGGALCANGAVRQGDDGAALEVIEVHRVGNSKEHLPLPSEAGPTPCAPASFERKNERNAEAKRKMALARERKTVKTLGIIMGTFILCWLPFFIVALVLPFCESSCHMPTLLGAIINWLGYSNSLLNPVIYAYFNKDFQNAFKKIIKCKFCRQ

[2] = Muscle relaxing action (in vivo); details: method of JP98/01481 or JP-A 10-281752
Source text: There are also shown a serotonin (5HT) receptor binding action (RBA; in vitro) and a muscle relaxing action (in vivo) measured according to a method described in JP98/01481 or JP-A 10-281752. (In the table, "n.t." means "not tested").

[3] = target: 5HT2 (Homo sapiens, UniProt P28223); experiment: Serotonin (5HT) receptor binding action (RBA; in vitro), 5HT2; details: method of JP98/01481 or JP-A 10-281752
5HT2, sequence (P28223 whole entry, species assumed): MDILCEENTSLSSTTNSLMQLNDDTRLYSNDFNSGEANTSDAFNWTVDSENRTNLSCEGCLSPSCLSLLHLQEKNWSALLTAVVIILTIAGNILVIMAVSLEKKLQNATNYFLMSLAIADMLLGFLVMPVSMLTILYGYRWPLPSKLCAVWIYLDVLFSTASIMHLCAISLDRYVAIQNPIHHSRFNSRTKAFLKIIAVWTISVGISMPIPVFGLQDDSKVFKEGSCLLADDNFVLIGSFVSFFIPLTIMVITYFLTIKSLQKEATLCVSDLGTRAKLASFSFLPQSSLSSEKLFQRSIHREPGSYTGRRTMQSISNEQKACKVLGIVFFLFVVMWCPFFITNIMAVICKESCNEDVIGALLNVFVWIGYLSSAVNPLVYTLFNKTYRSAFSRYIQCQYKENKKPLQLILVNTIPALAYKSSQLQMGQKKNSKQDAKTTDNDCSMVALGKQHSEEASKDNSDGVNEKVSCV

[4] = test system: writhing behavior; experiment: Analgesic action by a writhing method using acetic acid; type: in vivo, Male mice of a ddY strain; details: sc; statistically minimum effective dose; 0.6% acetic acid ip 15 minutes after the drug, writhing counted for ten minutes; mice

Structure (SMILES)	Ki [1] [nM]	Muscle-Relaxing Action (ip) [2]	Muscle-Relaxing Action (po) [2]	Ki [3] [nM]	Analgesic Action (minimum effective dose) [4] [mg/kg]
CC(=O)NCc1ccc2ccn(C3CCN(CCc4ccc(F)cc4)CC3)c2c1 [(1), 1-[1-(4-Fluorophenethyl)piperidin-4-yl]-6-(N-acetylaminomethyl)indole]	0.51	0.3 mg/kg	1 mg/kg	1.38	0.3
CCC(=O)NCc1ccc2ccn(C3CCN(CCc4ccc(F)cc4)CC3)c2c1 [(2), 1-[1-(4-fluorophenethyl)piperidin-4-yl]-6-(N-propionylaminomethyl)indole]	1	0.3 mg/kg	3 mg/kg	2.6	3
COc1ccc(CCN2CCC(n3ccc4ccc(CNC(C)=O)cc43)CC2)cc1 [(3), 1-[1-(4-methoxyphenethyl)piperidin-4-yl]-6-(N-acetylaminomethyl)indole]	0.27	–	–	> 20	10
CC(=O)NCc1ccc2ccn(C3CCN(CCc4ccccc4F)CC3)c2c1 [(4), 1-[1-(2-fluorophenethyl)piperidin-4-yl]-6-(N-acetylaminomethyl)indole]	1.58	–	10 mg/kg	0.75	3
O=C(Cc1ccc2ccn(C3CCN(CCc4ccc(F)cc4)CC3)c2c1)NCCO [(6), 1-[1-(4-fluorophenethyl)piperidin-4-yl]-6-(N-hydroxyethylamidemethyl)indole]	–	–	10 mg/kg	–	> 10
CN(C)C(=O)Cc1ccc2ccn(C3CCN(CCc4ccc(F)cc4)CC3)c2c1 [(7), 1-[1-(4-fluorophenethyl)piperidin-4-yl]-6-(N,N-dimethylamidemethyl)indole oxalate]	–	–	–	–	> 10
NC(=O)Cc1ccc2ccn(C3CCN(CCc4ccc(F)cc4)CC3)c2c1 [(8), 1-[1-(4-fluorophenethyl)piperidin-4-yl]-6-amidemethylindole]	–	–	3 mg/kg	–	> 3
CNC(=O)Cc1ccc2ccn(C3CCN(CCc4ccc(F)cc4)CC3)c2c1 [(9), 1-[1-(4-fluorophenethyl)piperidin-4-yl]-6-(N-methylamidemethyl)indole]	–	0.3 mg/kg	3 mg/kg	–	1
CNC(=O)Cc1ccc2ccn(C3CCN(CCc4ccccc4F)CC3)c2c1 [(10), 1-[1-(2-fluorophenethyl)piperidin-4-yl]-6-(N-methylamidemethyl)indole]	4.02	3 mg/kg	< 1 mg/kg	1.23	3
CCNC(=O)Cc1ccc2ccn(C3CCN(CCc4ccccc4F)CC3)c2c1 [(11), 1-[1-(2-fluorophenethyl)piperidin-4-yl]-6-(N-ethylamidemethyl)indole]	–	–	10 mg/kg	–	3
O=C(Cc1ccc2ccn(C3CCN(CCc4ccccc4F)CC3)c2c1)NCCO [(12), 1-[1-(2-fluorophenethyl)piperidin-4-yl]-6-(N-hydroxyethylamidemethyl)indole]	–	–	> 10 mg/kg	–	10
NC(=O)Cc1ccc2ccn(C3CCN(CCc4ccccc4F)CC3)c2c1 [(13), 1-[1-(2-fluorophenethyl)piperidin-4-yl]-6-amidemethylindole]	0.59	1 mg/kg	3 mg/kg	2.81	3
CC(=O)NCc1ccc2c(c1)N(C1CCN(CCc3ccc(F)cc3)CC1)CC2 [(14), 1-[1-(4-fluorophenethyl)piperidin-4-yl]-6-(N-acetylaminomethyl)indoline]	6.43	0.3 mg/kg	0.3 mg/kg	0.43	0.3
CCN1CCN(c2nc(-c3ccc(OC)cc3)cc3ccccc23)CC1 [(15), 1-(4-ethylpiperazin-1-yl)-3-(4-methoxyphenyl)isoquinoline]	59.9	–	–	11.1	3
CCN1CCN(c2nc(-c3ccc(OCCO)cc3)cc3ccccc23)CC1 [(16), 1-(4-ethylpiperazin-1-yl)-3-(4-hydroxyethoxyphenyl)isoquinoline]	31.5	1 mg/kg	3 mg/kg	4.2	1
CCC(O)c1ccc(-c2cc3ccccc3c(N3CCN(CC)CC3)n2)cc1 (stereo not drawn) [(17), 1-(4-ethylpiperazin-1-yl)-3-[4-(1-hydroxypropyl)phenyl]isoquinoline]	6.9	1 mg/kg	10 mg/kg	1.6	1
CCN1CCN(c2nc(-c3cccc(CCCO)c3)cc3ccccc23)CC1 [(22), 1-(4-ethylpiperazin-1-yl)-3-(3-hydroxypropylphenyl)isoquinoline hydrochloride]	54.5	–	–	17.4	3
CC(C)(O)COc1ccc(-c2cc3sccc3c(N3CCN(CCO)CC3)n2)cc1.Cl [(27), 4-(4-hydroxyethylpiperazin-1-yl)-6-[4-(2-hydroxy-2-methylpropoxy)phenyl]thieno[3,2-c]pyridine hydrochloride]	1530	–	–	0.35	1
COc1cccc(C(O)C2CCN(CCc3ccc(F)cc3)CC2)c1OC (stereo not drawn) [MDL-100,907, reference compound]	–	0.3 mg/kg	1 mg/kg	–	3
CN1CC[C@]23c4c5ccc(O)c4O[C@H]2[C@@H](O)C=C[C@H]3[C@H]1C5.Cl [Morphine Hydrochloride, morphine hydrochloride, reference compound]	–	Ineffective (Strain Induced)	Ineffective (Strain Induced)	–	1
COc1ccccc1N1CCN(CCN(C(=O)C2CCCCC2)c2ccccn2)CC1 [WAY-100,635, reference compound]	–	> 10 mg/kg	–	> 200	3

From patent EP1123702A1, “ANALGESICS” (Eisai Co., Ltd., priority 1998, dated 2000)
